Assay results published in ChEMBL document CHEMBL1146980, “Synthesis and antitumor activity of icogenin and its analogue” (Bioorg Med Chem Lett, 2006).

What was measured:
Format in all cases: functional, cell-based
[1] = system: PC-3; experiment: Cytotoxicity against human PC3M cells by MTT assay
[2] = system: Bel-7402; experiment: Cytotoxicity against human BEL-7402 cells by MTT assay
[3] = system: HCT-8; experiment: Cytotoxicity against human HCT8 cells by MTT assay
[4] = system: KETR3; experiment: Cytotoxicity against human KETR3 cells by MTT assay
[5] = system: BGC-823; experiment: Cytotoxicity against human BGC823 cells by MTT assay
[6] = system: PANC-1; experiment: Cytotoxicity against human PANC1 cells by MTT assay
[7] = system: NCI-H460; experiment: Cytotoxicity against human H460 cells by MTT assay
[8] = system: A-431; experiment: Cytotoxicity against human A431 cells by MTT assay

Row | SMILES | IC50 [1] [nM] | IC50 [2] [nM] | IC50 [3] [nM] | IC50 [4] [nM] | IC50 [5] [nM] | IC50 [6] [nM] | IC50 [7] [nM] | IC50 [8] [nM]
1 | CO[C@]1(CC[C@H](C)CO)O[C@H]2C[C@H]3[C@@H]4CC=C5C[C@@H](O[C@H]6O[C@H](CO)[C@@H](O)[C@H](O[C@@H]7O[C@H](CO)[C@@H](O)[C@H](O)[C@H]7O)[C@H]6O[C@@H]6O[C@@H](C)[C@H](O)[C@@H](O)[C@H]6O)CC[C@]5(C)[C@H]4CC[C@]3(C)[C@H]2[C@@H]1C | 2760 | 950 | 1420 | 3780 | 2520 | 380 | 8160 | 670
2 | CO[C@]1(CC[C@H](C)CO)O[C@H]2C[C@H]3[C@@H]4CC=C5C[C@@H](O[C@@H]6O[C@H](CO)[C@@H](O)[C@H](O[C@@H]7O[C@H](CO)[C@@H](O)[C@H](O)[C@H]7O)[C@H]6O[C@@H]6O[C@@H](C)[C@H](O)[C@@H](O)[C@H]6O)CC[C@]5(C)[C@H]4CC[C@]3(C)[C@H]2[C@@H]1C [ICOGENIN] | 4350 | 750 | 1450 | 5150 | > 10000 | 270 | > 10000 | 3440
